Assay results as given in patent US6569631B1, “Microplate thermal shift assay for ligand development using 5-(4″dimethylaminophenyl)-2-(4′-phenyl)oxazole derivative fluorescent dyes” (3-Dimensional Pharmaceuticals, Inc., priority 1998, dated 2003).
Read-outs that look alike come from different tables or passages of the source. One block for each compound: values may come before it. Ends that are not written are not given here.

Assays:
[1] = target: T1, thrombin (Homo sapiens, UniProt P00734); assay: Fluorescence signal of reporter dyes in 384-well thermal unfolding of thrombin; set-up: A stock human α-thrombin solution (1.56 mg/mL) from Enzyme Research Labs; purchased Enzyme Research Labs; details: 100 μM dye; 1 μM thrombin; 500+/−25 nm bandpass filter
Method: A 1 μM thrombin solution was mixed with 5-(4″-dimethylaminophenyl)-2-(4′-phenyl)oxazole sulfonate dye to yield a final concentration of 100 μM 5-(4″-dimethylaminophenyl)-2-(4′-phenyl)oxazole sulfonate. This solution was pipetted into all the wells of a 384-well black thermocycler plate with a final volume of 4 μL per well, and 3 μL of mineral oil was then added to each well. The fluorescence signal from each well was recorded in a closed, black-walld metal box using a cooled CCD camera (SenSys, Photometrix, Inc.) equipped with a 500+/−25 nm bandpass filter. An identical experiment was performed separately, using the same instrument, camera, and filters, except that a final concentration of 100 μM 1,8-ANS was used in place of 5-(4″-dimethylaminophenyl)-2-(4′-phenyl)oxazole sulfonate as the reporter dye.
The ratio of signals from 5-(4″-dimethylaminophenyl)-2-(4′-phenyl)oxazole sulfonate and 1,8-ANS was calculated by averaging the signals of all 384 wells on each plate, and dividing the average signal from 1,8-ANS into that for 5-(4″-dimethylaminophenyl)-2-(4′-phenyl)oxazole sulfonate.

[2] = target: T2, chicken muscle pyruvate kinase (Gallus gallus, UniProt P00548); assay: Fluorescence signal of reporter dyes on thermal unfolding of pyruvate kinase; details: wavelengths above 480 nm; excitation 370 nm
T2 construct: purchased Sigma Chemical Co. P6406
Method: A 0.2 mg/mL solution of chicken muscle pyruvate kinase (Sigma Chemical Co., catalog # P6406) was incubated with either 10 mM 1-anilinonaph-thalene-8-sulfonate (1,8-ANS) (FIG. 44, open squares) or 10 mM 5-(4″-dimethylaminophenyl)-2-(4′-phenyl)oxazole sulfonate (Molecular Probes catalogue no. D-12800) (FIG. 44, closed squares) in a 500 μL four-sided quartz cuvette. Fluorescence spectra were recorded using a spectrofluorimeter (Florolog, SPEX/ISA), with the excitation monochromator set to 370 nm, and the excitation and emission bandpass slit widths set at 1 nm, The instrument was operated in front-face collection mode, so that fluorescence was collected from the same face of the cuvette that was illuminated by the exciting light source. Emission spectra of native protein+dye were recorded after mixing the protein and dye solutions at room temperature. Emission spectra of denatured protein and fluorescence dye were recorded after the protein/dye solutions were heated to 75° C. for 2 minutes, and then cooled to room temperature immediately prior to data collection. The spectra shown in FIG. 44 are difference spectra that were calculated by subtracting the native protein fluorescence from the denatured protein fluorescence for each dye at 25° C. […]

[3] = system: D(II) FGF receptor 1; assay: Microplate thermal shift screen of biochemical conditions, D(II) FGF receptor 1 stability; set-up: species or system human; details: NaCl concentration increased from 0.1 to 0.5 M
Method: The microplate thermal shift assay was used to simultaneously screen the effects of multiple biochemical conditions on D(II) FGF receptor 1 stability. The assays were performed by mixing 1 μL of D(II) FGFR1 (from a 500 μM concentrated stock in 50 mM HEPES pH 7.5) with 4 μL of each biochemical condition in wells of a 96-well polycarbonate microtiter plate. Final protein concentration after mixing was 100 μM and final 1,8-ANS concentration was 200 μM. Biochemical conditions were tested as follows: The pH's tested were 5 (Na acetate), 6 (MES), 7 (MOPS), 8 (HEPES), and 9 (CHES), with final buffer concentrations of 50 mM.
The salt concentrations tested were 0.1 or 0.5 M NaCl. Additives were tested in 50 mM MOPS, pH 7, 0.1 M NaCl, at final concentrations of 1 mM (EDTA, dithiothreitol), 10 mM (CaCl2, MgCl2, MgSO4, NiSO4),50 mM (arginine), 100 mM ((NH4)2SO4, LiSO4, Na2SO4, ZnSO4), 5% w/v (polyethylene glycol 6000), and 10% v/v glycerol.
Thermal denaturation profiles were generated as previously described for thrombin, aFGF, Factor D, and Factor Xa, by incremental heating of the microplate followed by a fluorescence reading after each temperature increase. Data were analyzed by non-linear least squares fitting as described previously.

[4] = target: T3, human α-thrombin (Homo sapiens, UniProt P00734); assay: Microplate thermal shift screen of biochemical conditions, thrombin stability; details: NaCl concentration increased from 0 to 0.5 M
T3 construct: A stock human α-thrombin solution (1.56 mg/mL) from Enzyme Research Labs; purchased Enzyme Research Labs
Method: The microplate thermal shift assay was used, with four different fluorophores, to simultaneously screen the effects of multiple pH values, sodium chloride concentrations, and reduction-oxidation compounds on human α-thrombin stability. Thrombin solution was diluted to 1 μM in 50 mM Hepes, pH 7.5, NaCl at either 0.1 M or 0.5 M, 10 mM EDTA, 10 mM CaCl2, 10 mM dithiothreitol, […], and 100 μM 1,8-ANS, 10% (v/v) glycerol, or 0.1% (w/v) polyethylene glycol (PEG) 6000. Reaction volume was 100 μL.
Using equation (1), it is possible to estimate the NaCl binding to be ˜6 mM near the Tm (53° C.) in 50 mM Hepes pH 8.0 buffer (zero and 0.10 M NaCl).

[5] = target: T1, thrombin; details: 5 mM Tris buffer pH 8.0, 0.1% PEG, 25° C.; read-out: Kd of the Na+ binding site; cited from earlier work
[6] = target: T4, acidic fibroblast growth factor (aFGF) (Homo sapiens, UniProt P05230); assay: Microplate thermal shift assay for ligands binding to aFGF, turbidity signal; details: for ΔTm: relative to aFGF alone (317.15 °K); for Tm: turbidity signal, aFGF 0.25 mg/mL, ligand 47-200 μM
T4 construct: host or cells: E. coli
Description: The second therapeutic receptor tested in the microplate thermal shift assay was acidic fibroblast growth factor (aFGF), a growth factor that plays a key role in angiogenesis (Folkman, J. et al., J. Biol. Chem. 267:1.0931-10934 (1992)). A synthetic gene for this protein was purchased from R&D Systems (Minneapolis, Minn.), and was cloned and expressed in E. coli using methods similar to those described for basic fibroblast growth factor (bFGF) (Thompson, L. D. et al., Biochemistry 33:3831-3840 (1994); Pantoliano, M. W. et al., Biochemistry 33:10229-10248 (1994); Springer, B. A. et al., J. Biol. Chem. 269:26879-26884 (1994)). Recombinant aFGF was then purified by heparin-sepharose affinity chromatography as described (Thompson, L. D. et al., Biochemistry 33:3831-3840 (1994)). aFGF is also known to bind heparin/heparan, which is a cofactor for mitogenic activity. […] A microplate thermal assay of these compounds was set up in a way similar to that described above for human α-thrombin. […] The affinity constants covered a fairly broad range of binding affinities, with pentosan PSO4 showing the highest affinity.

[7] = target: T5, heparin binding site of human α-thrombin (Homo sapiens, UniProt P00734); assay: Microplate thermal shift assay, ligands binding to the heparin binding site, turbidity signal
T5 construct: A stock human α-thrombin solution (1.56 mg/mL) from Enzyme Research Labs; purchased Enzyme Research Labs
Description: Assays for ligands that bind to the heparin binding site of human α-thrombin are more difficult to perform than assays for ligands that bind to the active site of human α-thrombin. At the heparin binding site, no substrate is hydrolyzed, so no spectrophotometric signal can be amplified for instrumental detection. Heparin activity is usually estimated in biological clotting time assays. […] Thus, heparin binding to human α-thrombin represents the kind of challenge encountered with the vast majority of non-enzyme receptor/ligand binding events, which are commonly observed for hormone/receptor interactions, repressor/DNA interactions, neurotransmitter/receptor interactions, etc. Several heparin-like sulfated oligosaccharides and sulfated naphthalene compounds were assayed by the microplate thermal shift assay. Using the thermal shift assay, it was possible to use a single compound per well to quickly rank the compounds in order of increasing binding affinity, with Kd's ranging over three orders of magnitude (see Table 4). Like the experiment in Example 1, the thermal shift assay results agreed closely with the results obtained through an alternative method, which required a series of laborious (15 to 20 single determinations) fluorescence quench assays over a wide range of concentrations of low MW heparin (Olson, S. T. et al., J. Biol. Chem. 266:6342-6352 (1991)).

[8] = target: T6, D(II) FGFR1 (Homo sapiens, UniProt P11362); assay: Miniaturized (10 μL) microplate thermal shift assay of D(II) FGFR1; assay type: binding; details: aprosulate 300 μM
T6 construct: made in house
T6 sequence (P11362 158-246 limits assumed): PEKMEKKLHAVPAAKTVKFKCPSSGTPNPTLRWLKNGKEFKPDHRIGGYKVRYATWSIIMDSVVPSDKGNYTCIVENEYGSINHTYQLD
Method: Recombinant D(II) FGFR1 was purified from inclusion bodies and purified by affinity chromatography on heparin sepharose. A stock solution of D(II) FGFR1 (15 mg/mL; 1.1 mM) was diluted to 50 μM in assay buffer (50 mM Hepes, pH 7.5, 0.1 M NaCl). The assay volume was 10 μL and the concentration of 1,8-ANS was 250 μM.

[9] = system: human urokinase-type plasminogen activator (u-PA); assay: Miniaturized microplate thermal shift assay of urokinase; assay type: binding; details: 5 μL; MOPS pH 7, NaCl, 1,8-ANS
Description: Another target molecule analyzed was human urokinase-type plasminogen activator (u-PA). U-PA enzymatically converts plasminogen into the active protease plasmin. U-PA is involved in tissue remodeling, cellular migration and metastases. The gene for u-PA was obtained from ATCC (Rockville, Md.) and modified to appropriately express active enzyme in E. coli. u-PA was cloned, overexpressed in E. coli, and purified using procedures similar to those described by Winkler et al. (Biochemistry 25:4041-4045 (1986)). […] The experiment was performed in the miniaturized format in 5 μL well volume. One μL of concentrated CMK-u-PA (13 g/L, 371.4 μM) was added to 4 μL of 62.5 mM MOPS, pH 7, 125 mM NaCl, and 250 μM 1,8-ANS, in multiple wells of a 96-well polycarbonate V-bottom microtiter plate. A thermal denaturation curve was generated as previously described for thrombin, aFGF, D(II)FGFR1, Factor D, and Factor Xa, by incremental heating of the microplate followed by a fluorescence reading after each temperature increase.

T4 sequence (P05230 whole entry, species assumed): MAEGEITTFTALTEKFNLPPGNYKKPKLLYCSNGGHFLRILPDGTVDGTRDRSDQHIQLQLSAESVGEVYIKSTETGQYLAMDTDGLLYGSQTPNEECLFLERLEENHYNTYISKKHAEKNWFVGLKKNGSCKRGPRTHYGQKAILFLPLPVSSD
T2 sequence (P00548 whole entry): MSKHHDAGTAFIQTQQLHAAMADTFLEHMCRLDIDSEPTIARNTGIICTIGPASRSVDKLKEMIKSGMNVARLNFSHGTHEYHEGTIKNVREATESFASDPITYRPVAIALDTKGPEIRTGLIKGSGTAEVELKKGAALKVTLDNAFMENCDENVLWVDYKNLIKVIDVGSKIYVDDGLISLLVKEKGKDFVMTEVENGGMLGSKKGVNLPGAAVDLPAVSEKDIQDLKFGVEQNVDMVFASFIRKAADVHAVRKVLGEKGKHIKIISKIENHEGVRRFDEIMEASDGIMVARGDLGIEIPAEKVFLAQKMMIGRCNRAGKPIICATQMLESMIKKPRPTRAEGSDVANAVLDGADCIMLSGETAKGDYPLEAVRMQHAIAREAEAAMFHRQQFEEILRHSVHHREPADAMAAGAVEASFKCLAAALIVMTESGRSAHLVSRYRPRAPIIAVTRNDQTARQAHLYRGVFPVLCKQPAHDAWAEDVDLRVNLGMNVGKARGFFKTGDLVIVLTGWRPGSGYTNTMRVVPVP

signal relative to 1,8-ANS, average of 384 wells [1]: 4.25 times | fluorescence signal relative to 1,8-ANS on unfolding of pyruvate kinase [2]: approximately 3.2 fold
Compound: CN(C)c1ccc(-c2cnc(-c3ccc(S(=O)(=O)O)cc3)o2)cc1 [5-(4″-dimethylaminophenyl)-2-(4′-phenyl)oxazole sulfonate]

Compound: [Cl-].[Na+] [NaCl, sodium chloride]
ΔTm [3]: about 5 °C | ΔTm [4]: about 12 °C

Compound: [Na+] [Na^+]
Kd [5]: 30000 ± 3000 µM

Compound: Cc1ccc(C(=O)Nc2ccc(S(=O)(=O)O)c3cc(S(=O)(=O)O)cc(S(=O)(=O)O)c23)cc1NC(=O)c1cccc(NC(=O)Nc2cccc(C(=O)Nc3cc(C(=O)Nc4ccc(S(=O)(=O)O)c5cc(S(=O)(=O)O)cc(S(=O)(=O)O)c45)ccc3C)c2)c1 [Suramin, suramin]
ΔTm [6]: 13.0 °K | Tm [6]: 330.15 °K | ΔTm ([7]; relative to thrombin alone (329.15 °K)): 11.0 °K | affinity at Tm higher than the affinity of heparin 5000 ([7]; thermal shift assay, Table 4): 5700 fold | Tm ([7]; turbidity signal, 11 μM thrombin, ligand 40-102 μM): 340.15 °K

unfolding transition (Tm) in the presence of ligand [8]: about 320 K | increase of the unfolding transition ([8]; D(II) FGFR1 50 μM, 10 μL): about 8 K
Compound: O=C(NCCCNC(=O)[C@H](OS(=O)(=O)O)[C@@H](OS(=O)(=O)O)[C@H](O[C@@H]1O[C@H](COS(=O)(=O)O)[C@H](OS(=O)(=O)O)[C@H](OS(=O)(=O)O)[C@H]1OS(=O)(=O)O)[C@@H](COS(=O)(=O)O)OS(=O)(=O)O)[C@H](OS(=O)(=O)O)[C@@H](OS(=O)(=O)O)[C@H](O[C@@H]1O[C@H](COS(=O)(=O)O)[C@H](OS(=O)(=O)O)[C@H](OS(=O)(=O)O)[C@H]1OS(=O)(=O)O)[C@@H](COS(=O)(=O)O)OS(=O)(=O)O [aprosulate]

Kd ([6]; equation (1), estimated ΔHu 60.0 kcal/mole, ΔCpu 0.95 kcal/mole-°K, read-out: Kd at Tm): 10.1 µM | Kd ([6]; estimate by equation (3), ΔHL −10.0 kcal/mole, read-out: Kd at 298° K Observed): 3.04 µM | ΔTm [6]: 5.0 °K | Tm [6]: 322.15 °K
Compound: EEEEEEEE

Compound: glu-gly-arg-chloromethylketone [CMK]
Tm of the CMK-u-PA complex [9]: 81 °C
